Measured values published in ChEMBL document CHEMBL3885861, “Open TG-GATES”.

Species on record: Rattus norvegicus
Test: Open TG-GATES - Regimen: Daily Repeat
Assay type: toxicity, organism-based, Sprague-Dawley
Parameters: regimen Daily Repeat, gender Male, age 6 weeks
Details: in vivo, po, 0 mg/kg, route gavage, dose level Control; for APTT / Bas / Eos / Fbg / Hb / Ht / Lym / MCH / MCHC / MCV / Mono / Neu / PT / Plat / RBC / Ret / WBC: tissue Blood; for KIDNEY_TOTAL: tissue Kidney; for LIVER: tissue Liver; for A/G / ALP / ALT / AST / BUN / CRE / Ca / Cl / DBIL / GLC / IP / K / LDH / Na / PL / RALB / TBIL / TC / TG / TP / gamma-GTP: tissue Plasma

Compound `CN(CCOc1ccc(CC2SC(=O)NC2=O)cc1)c1ccccn1.O=C(O)/C=C\C(=O)O` (centres undefined) [ROSIGLITAZONE MALEATE] has a TERMINAL_BW (72 h, time 3 day) of 242.8 g, an APTT (72 h, time 3 day) of 15.5 s and a Bas (72 h, time 3 day) of 0%. The Eos (72 h, time 3 day) was 1.2%, the Fbg (72 h, time 3 day) was 236.8 mg/dL and the Hb (72 h, time 3 day) was 13 g/dL. The Ht (72 h, time 3 day) was 39.2%, the Lym (72 h, time 3 day) was 76.6% and the MCH (72 h, time 3 day) was 21.1 pg. For the same compound, the MCHC (72 h, time 3 day) was 33%, the MCV (72 h, time 3 day) was 63.9 fL and the Mono (72 h, time 3 day) was 5.2%. For the same compound, the Neu (72 h, time 3 day) was 17.4%, the PT (72 h, time 3 day) was 11.5 s and the Plat (72 h, time 3 day) was 136 x10_4/uL. For the same compound, the RBC (72 h, time 3 day) was 615.6 x10_4/ul, the Ret (72 h, time 3 day) was 6.6% and the WBC (72 h, time 3 day) was 98 x10_2/uL. For the same compound, the KIDNEY_TOTAL (72 h, time 3 day) was 0.8 g, the LIVER (72 h, time 3 day) was 12.6 g and the A/G (72 h, time 3 day) was 2.2. The ALP (72 h, time 3 day) was 1243.6 IU/L, the ALT (72 h, time 3 day) was 35.6 IU/L and the AST (72 h, time 3 day) was 62.6 IU/L. The BUN (72 h, time 3 day) was 14.8 mg/dL, the CRE (72 h, time 3 day) was 0.2 mg/dL and the Ca (72 h, time 3 day) was 11.7 mg/dL. The Cl (72 h, time 3 day) was 104.2 meq/L, the DBIL (72 h, time 3 day) was 0.014 mg/dL and the GLC (72 h, time 3 day) was 197.6 mg/dL. For the same compound, the IP (72 h, time 3 day) was 6.9 mg/dL, the K (72 h, time 3 day) was 4.7 meq/L and the LDH (72 h, time 3 day) was 96.2 IU/L. It also gave a Na (72 h, time 3 day) of 140.4 meq/L, a PL (72 h, time 3 day) of 154.8 mg/dL and an RALB (72 h, time 3 day) of 3.9 g/dL. For the same compound, the TBIL (72 h, time 3 day) was 0.04 mg/dL, the TC (72 h, time 3 day) was 83.4 mg/dL and the TG (72 h, time 3 day) was 105.8 mg/dL. It also gave a TP (72 h, time 3 day) of 5.8 g/dL, a gamma-GTP (72 h, time 3 day) of 0.2 IU/L and a TERMINAL_BW ([…], time 7 day) of 274.1 g. It also gave a TERMINAL_BW ([…], time 14 day) of 332.1 g, a TERMINAL_BW ([…], time 28 day) of 412.9 g and an APTT ([…], time 7 day) of 16.1 s. For the same compound, the Bas ([…], time 7 day) was 0%, the Eos ([…], time 7 day) was 1% and the Fbg ([…], time 7 day) was 242.4 mg/dL. It also gave a Hb ([…], time 7 day) of 13.4 g/dL, a Ht ([…], time 7 day) of 40.5% and a Lym ([…], time 7 day) of 82%. The MCH ([…], time 7 day) was 20.8 pg, the MCHC ([…], time 7 day) was 33% and the MCV ([…], time 7 day) was 63 fL. The Mono ([…], time 7 day) was 4.4%, the Neu ([…], time 7 day) was 12.8% and the PT ([…], time 7 day) was 11.7 s. The Plat ([…], time 7 day) was 134.6 x10_4/uL, the RBC ([…], time 7 day) was 643.8 x10_4/ul and the Ret ([…], time 7 day) was 4.6%. For the same compound, the WBC ([…], time 7 day) was 98.6 x10_2/uL, the APTT ([…], time 14 day) was 15.7 s and the Bas ([…], time 14 day) was 0%. The Eos ([…], time 14 day) was 1%, the Fbg ([…], time 14 day) was 247.4 mg/dL and the Hb ([…], time 14 day) was 14 g/dL. For the same compound, the Ht ([…], time 14 day) was 42.3%, the Lym ([…], time 14 day) was 74.4% and the MCH ([…], time 14 day) was 20.6 pg. For the same compound, the MCHC ([…], time 14 day) was 33%, the MCV ([…], time 14 day) was 62.2 fL and the Mono ([…], time 14 day) was 6%. The Neu ([…], time 14 day) was 18.6%, the PT ([…], time 14 day) was 11.5 s and the Plat ([…], time 14 day) was 126.2 x10_4/uL. The RBC ([…], time 14 day) was 680.2 x10_4/ul, the Ret ([…], time 14 day) was 3.6% and the WBC ([…], time 14 day) was 124.2 x10_2/uL. It also gave an APTT ([…], time 28 day) of 16 s, a Bas ([…], time 28 day) of 0% and an Eos ([…], time 28 day) of 1%. For the same compound, the Fbg ([…], time 28 day) was 242.4 mg/dL, the Hb ([…], time 28 day) was 14.6 g/dL and the Ht ([…], time 28 day) was 44%. The Lym ([…], time 28 day) was 75.2%, the MCH ([…], time 28 day) was 19.5 pg and the MCHC ([…], time 28 day) was 33.2%. The MCV ([…], time 28 day) was 58.9 fL, the Mono ([…], time 28 day) was 7.6% and the Neu ([…], time 28 day) was 16.4%. It also gave a PT ([…], time 28 day) of 11.7 s, a Plat ([…], time 28 day) of 120.2 x10_4/uL and an RBC ([…], time 28 day) of 747.6 x10_4/ul. It also gave a Ret ([…], time 28 day) of 2.6%, a WBC ([…], time 28 day) of 114.8 x10_2/uL and a KIDNEY_TOTAL ([…], time 7 day) of 0.7 g. It also gave a KIDNEY_TOTAL ([…], time 14 day) of 0.9 g, a KIDNEY_TOTAL ([…], time 28 day) of 0.9 g and an LIVER ([…], time 7 day) of 12.9 g. It also gave an LIVER ([…], time 14 day) of 15.7 g, an LIVER ([…], time 28 day) of 17.1 g and an A/G ([…], time 7 day) of 2. For the same compound, the ALP ([…], time 7 day) was 1306.8 IU/L, the ALT ([…], time 7 day) was 33.2 IU/L and the AST ([…], time 7 day) was 58.8 IU/L. It also gave a BUN ([…], time 7 day) of 18.2 mg/dL, a CRE ([…], time 7 day) of 0.5 mg/dL and a Ca ([…], time 7 day) of 19.5 mg/dL. It also gave a Cl ([…], time 7 day) of 104.8 meq/L, a DBIL ([…], time 7 day) of 0.01 mg/dL and a GLC ([…], time 7 day) of 181.4 mg/dL. For the same compound, the IP ([…], time 7 day) was 7.1 mg/dL, the K ([…], time 7 day) was 4.5 meq/L and the LDH ([…], time 7 day) was 79 IU/L. The Na ([…], time 7 day) was 140 meq/L, the PL ([…], time 7 day) was 148.6 mg/dL and the RALB ([…], time 7 day) was 3.8 g/dL. For the same compound, the TBIL ([…], time 7 day) was 0.028 mg/dL, the TC ([…], time 7 day) was 76.6 mg/dL and the TG ([…], time 7 day) was 138.8 mg/dL. The TP ([…], time 7 day) was 5.7 g/dL, the gamma-GTP ([…], time 7 day) was 0.2 IU/L and the A/G ([…], time 14 day) was 2.1. The ALP ([…], time 14 day) was 1411 IU/L, the ALT ([…], time 14 day) was 32.8 IU/L and the AST ([…], time 14 day) was 62.4 IU/L. For the same compound, the BUN ([…], time 14 day) was 19 mg/dL, the CRE ([…], time 14 day) was 0.4 mg/dL and the Ca ([…], time 14 day) was 11.1 mg/dL. The Cl ([…], time 14 day) was 106 meq/L, the DBIL ([…], time 14 day) was 0.01 mg/dL and the GLC ([…], time 14 day) was 186.4 mg/dL. It also gave an IP ([…], time 14 day) of 7.2 mg/dL, a K ([…], time 14 day) of 4.5 meq/L and an LDH ([…], time 14 day) of 65 IU/L. For the same compound, the Na ([…], time 14 day) was 143 meq/L, the PL ([…], time 14 day) was 159.4 mg/dL and the RALB ([…], time 14 day) was 3.9 g/dL. The TBIL ([…], time 14 day) was 0.036 mg/dL, the TC ([…], time 14 day) was 76.4 mg/dL and the TG ([…], time 14 day) was 186.4 mg/dL. The TP ([…], time 14 day) was 5.8 g/dL, the gamma-GTP ([…], time 14 day) was 1 IU/L and the A/G ([…], time 28 day) was 1.9. The ALP ([…], time 28 day) was 1035.6 IU/L, the ALT ([…], time 28 day) was 29.2 IU/L and the AST ([…], time 28 day) was 55 IU/L. For the same compound, the BUN ([…], time 28 day) was 18.4 mg/dL, the CRE ([…], time 28 day) was 0.4 mg/dL and the Ca ([…], time 28 day) was 10.7 mg/dL. For the same compound, the Cl ([…], time 28 day) was 105 meq/L, the DBIL ([…], time 28 day) was 0.012 mg/dL and the GLC ([…], time 28 day) was 183 mg/dL. The IP ([…], time 28 day) was 6.1 mg/dL, the K ([…], time 28 day) was 4.4 meq/L and the LDH ([…], time 28 day) was 68.8 IU/L. For the same compound, the Na ([…], time 28 day) was 139.8 meq/L, the PL ([…], time 28 day) was 144.8 mg/dL and the RALB ([…], time 28 day) was 3.9 g/dL. For the same compound, the TBIL ([…], time 28 day) was 0.036 mg/dL, the TC ([…], time 28 day) was 73.2 mg/dL and the TG ([…], time 28 day) was 162 mg/dL. The TP ([…], time 28 day) was 5.9 g/dL and the gamma-GTP ([…], time 28 day) was 0.4 IU/L.
